Reference: patent publication US6355799B1, “Substituted benzene compounds, process for their preparation, and herbicidal and defoliant compositions containing them” (ISK Americas Incorporated, priority 1997, dated 2002)

Assays:
Assay type in all cases: in vivo
[1] = test system: field corn (Zea mays L., var. Dekalb 535, CORN); assay: Pre-emerge test, crop safety; details: pre-emerge, 14 days after application, scale 0-100
Summary of the method: (§1)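 Herbicidal damage is scored 0 (none) to 100 (complete plant death) two weeks after a simulated field spray. Rates span 15–1000 g ai/ha, delivered in acetone at 187 l/ha. For post-emergence treatments, plants have 2–3 leaves and the spray carries 0.25% v/v non-ionic surfactant.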

[2] = test system: upland rice (Oryza sp., var. Tebonnet, RICE); assay: Pre-emerge test, crop safety; details: pre-emerge, 14 days after application, scale 0-100
Summary of the method: as §1

[3] = test system: barnyardgrass (Echinochloa crus-galli, ECHCG); assay: Post-emerge test, greenhouse herbicide activity screening; details: post-emerge, 14 days after application, rating scale 0-100
Summary of the method: (§2)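 Compounds in acetone were track-sprayed at 15–1000 g ai/ha: pre-emergence onto soil sown the previous day, then top-watered to incorporate and later bottom-watered; post-emergence onto 2–3 leaf plants with 0.25% v/v surfactant, bottom-watered only. Ratings on a 0–100 phytotoxicity scale were taken at day 14.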

[4] = test system: large crabgrass (Digitaria sanguinalis, DIGSA); assay: as above; details: post-emerge, 14 days after application, rating scale 0-100
Summary of the method: as §2

[5] = test system: redroot pigweed (Amaranthus retroflexus, AMARE); assay: as above; details: post-emerge, 14 days after application, rating scale 0-100
Summary of the method: as §2

[6] = test system: velvetleaf (Abutilon theophrasti, ABUTH); assay: as above; details: post-emerge, 14 days after application, rating scale 0-100
Summary of the method: as §2

[7] = test system: lambsquarters (Chenopodium album, CHEAL); assay: as above; details: post-emerge, 14 days after application, rating scale 0-100
Summary of the method: as §2

[8] = test system: green foxtail (Setaria viridis, SETVI); assay: as above; details: post-emerge, 14 days after application, rating scale 0-100
Summary of the method: as §2

[9] = test system: sicklepod (Cassia obtusifolia, CASOB); assay: as above; details: post-emerge, 14 days after application, rating scale 0-100
Summary of the method: as §2

[10] = test system: ivyleaf morningglory (Ipomoea hederacea, IPOHE); assay: as above; details: post-emerge, 14 days after application, rating scale 0-100
Summary of the method: as §2

[11] = test system: field corn (Zea mays L., var. Dekalb 535, CORN); assay: Post-emerge test, crop safety; details: post-emerge, 14 days after application, rating scale 0-100
Summary of the method: (§3)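 Visual ratings on a 0-100 scale (0 no damage, 100 all plants dead) were taken at 14 days after treatment. Rates of 15-1000 g ai/ha in acetone, 187 l/ha, were sprayed onto soil one day after planting (pre-emerge) or onto 2-3 leaf plants with 0.25% v/v surfactant (post-emerge).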

[12] = test system: upland rice (Oryza sp., var. Tebonnet, RICE); assay: Post-emerge test, crop safety; details: post-emerge, 14 days after application, rating scale 0-100
Summary of the method: as §3

[13] = test system: redroot pigweed (Amaranthus retroflexus, AMARE); assay: Pre-emerge test, greenhouse herbicide activity screening; details: pre-emerge, 14 days after application, scale 0-100
Summary of the method: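 Sandy loam pots; pre-emerge: sown 1 d pre-spray, surface-watered after, then bottom-watered. Post-emerge: sown 8–21 d before, 2–3 leaf stage, + 0.25% v/v NIS, bottom-watered. Acetone, 187 l/ha track spray, 15–1000 g ai/ha. 0–100 injury score, day 14.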

[14] = test system: barnyardgrass (Echinochloa crus-galli, ECHCG); assay: as above; details: pre-emerge, 14 days after application, scale 0-100
Summary of the method: as §3

[15] = test system: large crabgrass (Digitaria sanguinalis, DIGSA); assay: as above; details: pre-emerge, 14 days after application, scale 0-100
Summary of the method: as §3

[16] = test system: velvetleaf (Abutilon theophrasti, ABUTH); assay: as above; details: pre-emerge, 14 days after application, scale 0-100
Summary of the method: as §3

[17] = test system: lambsquarters (Chenopodium album, CHEAL); assay: as above; details: pre-emerge, 14 days after application, scale 0-100
Summary of the method: as §3

[18] = test system: johnsongrass (Sorghum halepense, SORHA); assay: as above; details: pre-emerge, 14 days after application, scale 0-100
Summary of the method: as §3

[19] = test system: green foxtail (Setaria viridis, SETVI); assay: as above; details: pre-emerge, 14 days after application, scale 0-100
Summary of the method: as §3

[20] = test system: sicklepod (Cassia obtusifolia, CASOB); assay: as above; details: pre-emerge, 14 days after application, scale 0-100
Summary of the method: as §3

[21] = test system: ivyleaf morningglory (Ipomoea hederacea, IPOHE); assay: as above; details: pre-emerge, 14 days after application, scale 0-100
Summary of the method: as §3

COc1c(Cl)cc(F)c(-n2c(=O)cc(C(F)(F)F)n(C)c2=O)c1NC(=O)COc1ccc(Cl)cc1Cl [2-154]
70: phytotoxicity rating RICE (crop damage) ([2]; 250 g ai/ha) | phytotoxicity rating SETVI ([19]; 63 g ai/ha)
35: phytotoxicity rating RICE (crop damage) ([2]; 63 g ai/ha)
40: SETVI phytotoxicity rating ([8]; 63 g ai/ha)
50: CASOB phytotoxicity rating ([9]; 63 g ai/ha) | phytotoxicity rating ECHCG ([14]; 63 g ai/ha)
60: phytotoxicity rating CASOB ([20]; 63 g ai/ha)
80: ECHCG phytotoxicity rating ([3]; 63 g ai/ha) | phytotoxicity rating SORHA ([18]; 63 g ai/ha) | phytotoxicity rating IPOHE ([21]; 63 g ai/ha)
100: AMARE phytotoxicity rating ([5]; 63 g ai/ha) | AMARE phytotoxicity rating ([5]; 250 g ai/ha) | ABUTH phytotoxicity rating ([6]; 63 g ai/ha) | ABUTH phytotoxicity rating ([6]; 250 g ai/ha) | CHEAL phytotoxicity rating ([7]; 63 g ai/ha) | CHEAL phytotoxicity rating ([7]; 250 g ai/ha) | CASOB phytotoxicity rating ([9]; 250 g ai/ha) | IPOHE phytotoxicity rating ([10]; 63 g ai/ha) | IPOHE phytotoxicity rating ([10]; 250 g ai/ha) | phytotoxicity rating AMARE ([13]; 63 g ai/ha) | phytotoxicity rating AMARE ([13]; 250 g ai/ha) | phytotoxicity rating ABUTH ([16]; 63 g ai/ha) | phytotoxicity rating ABUTH ([16]; 250 g ai/ha) | phytotoxicity rating CHEAL ([17]; 63 g ai/ha) | phytotoxicity rating CHEAL ([17]; 250 g ai/ha) | phytotoxicity rating SETVI ([19]; 250 g ai/ha) | phytotoxicity rating IPOHE ([21]; 250 g ai/ha)
65: RICE phytotoxicity rating (crop damage) ([12]; 63 g ai/ha)
95: ECHCG phytotoxicity rating ([3]; 250 g ai/ha) | SETVI phytotoxicity rating ([8]; 250 g ai/ha) | phytotoxicity rating ECHCG ([14]; 250 g ai/ha) | phytotoxicity rating DIGSA ([15]; 250 g ai/ha) | phytotoxicity rating SORHA ([18]; 250 g ai/ha) | phytotoxicity rating CASOB ([20]; 250 g ai/ha)
85: DIGSA phytotoxicity rating ([4]; 250 g ai/ha) | CORN phytotoxicity rating (crop damage) ([11]; 250 g ai/ha) | phytotoxicity rating DIGSA ([15]; 63 g ai/ha)
90: phytotoxicity rating CORN (crop damage) ([1]; 250 g ai/ha) | RICE phytotoxicity rating (crop damage) ([12]; 250 g ai/ha)
10: phytotoxicity rating CORN (crop damage) ([1]; 63 g ai/ha) | DIGSA phytotoxicity rating ([4]; 63 g ai/ha) | CORN phytotoxicity rating (crop damage) ([11]; 63 g ai/ha)

Cn1c(C(F)(F)F)cc(=O)n(-c2ccc(C#N)cc2NC(=O)c2ccc3ccccc3c2)c1=O [2-140]
50: RICE phytotoxicity rating (crop damage) ([12]; 63 g ai/ha) | phytotoxicity rating SETVI ([19]; 63 g ai/ha)
95: phytotoxicity rating DIGSA ([15]; 250 g ai/ha)
85: phytotoxicity rating RICE (crop damage) ([2]; 250 g ai/ha) | ECHCG phytotoxicity rating ([3]; 250 g ai/ha)
30: phytotoxicity rating RICE (crop damage) ([2]; 63 g ai/ha) | ECHCG phytotoxicity rating ([3]; 63 g ai/ha)
100: AMARE phytotoxicity rating ([5]; 63 g ai/ha) | AMARE phytotoxicity rating ([5]; 250 g ai/ha) | ABUTH phytotoxicity rating ([6]; 63 g ai/ha) | ABUTH phytotoxicity rating ([6]; 250 g ai/ha) | CHEAL phytotoxicity rating ([7]; 63 g ai/ha) | CHEAL phytotoxicity rating ([7]; 250 g ai/ha) | CASOB phytotoxicity rating ([9]; 63 g ai/ha) | CASOB phytotoxicity rating ([9]; 250 g ai/ha) | IPOHE phytotoxicity rating ([10]; 63 g ai/ha) | IPOHE phytotoxicity rating ([10]; 250 g ai/ha) | phytotoxicity rating AMARE ([13]; 63 g ai/ha) | phytotoxicity rating AMARE ([13]; 250 g ai/ha) | phytotoxicity rating ABUTH ([16]; 63 g ai/ha) | phytotoxicity rating ABUTH ([16]; 250 g ai/ha) | phytotoxicity rating CHEAL ([17]; 63 g ai/ha) | phytotoxicity rating CHEAL ([17]; 250 g ai/ha) | phytotoxicity rating CASOB ([20]; 250 g ai/ha) | phytotoxicity rating IPOHE ([21]; 250 g ai/ha)
20: DIGSA phytotoxicity rating ([4]; 63 g ai/ha)
40: SETVI phytotoxicity rating ([8]; 63 g ai/ha) | phytotoxicity rating ECHCG ([14]; 63 g ai/ha) | phytotoxicity rating DIGSA ([15]; 63 g ai/ha) | phytotoxicity rating CASOB ([20]; 63 g ai/ha)
10: CORN phytotoxicity rating (crop damage) ([11]; 63 g ai/ha) | phytotoxicity rating SORHA ([18]; 63 g ai/ha) | phytotoxicity rating IPOHE ([21]; 63 g ai/ha)
80: RICE phytotoxicity rating (crop damage) ([12]; 250 g ai/ha) | phytotoxicity rating ECHCG ([14]; 250 g ai/ha) | phytotoxicity rating SETVI ([19]; 250 g ai/ha)
15: phytotoxicity rating CORN (crop damage) ([1]; 250 g ai/ha)
60: SETVI phytotoxicity rating ([8]; 250 g ai/ha) | phytotoxicity rating SORHA ([18]; 250 g ai/ha)
70: CORN phytotoxicity rating (crop damage) ([11]; 250 g ai/ha)
0: phytotoxicity rating CORN (crop damage) ([1]; 63 g ai/ha)
65: DIGSA phytotoxicity rating ([4]; 250 g ai/ha)
